Entries after “also recorded” stand apart in the source; their conditions may differ. Residues, ends and D or L forms follow the SMILES beside them.
Experiments:
[1] = test system: HEK293 Tau^RD-P301S-CFP/YFP expressing biosensor cells; test: Seeding inhibition in FRET tau biosensor cells, AD brain extracts; assay type: cell-based, human; settings: CAP1 500 nM pre-treatment, extracts diluted 500x, three patients in duplicates, n = 6
Text: Ethical approval to access and work on the human tissue samples was given by the UZ Leuven ethical committee (Leuven/Belgium; File-No. S63759). An informed consent for autopsy and scientific use of autopsy tissue with clinical information was granted from all subjects involved. Following approval, brain tissue from autopsy cases was received from UZ/KU Leuven Biobank. Sarkosyl-insoluble material was extracted from cortex tissue of three individual patients with Alzheimer’s disease (designated here as A1–A3, Supplementary Table 3), as shown previously. Briefly, the tissue was homogenised with a FastPrep (MP Biomedicals) in 10 volumes (w/v) cold buffer consisting of 10 mM Tris-HCl pH 7.4, 0.8 M NaCl, 1 mM EGTA and 10% sucrose, followed by centrifugation at 20,000 × g for 20 min at 4 °C. Universal Nuclease (Pierce) was added to the supernatant, followed by a 30 min incubation at room temperature. The sample was then brought to 1% Sarkosyl (Sigma) and incubated for 1 h at room temperature while shaking (400 rpm), followed by centrifugation at 350,000 × g for 1 h at 4 °C. The pellet was washed once, resuspended in 50 mM Tris-HCl pH 7.4 (175 mg of starting material per 100 µl) and stored at −80 °C. […]

[2] = target: T1, recombinant full-length tau (tau^2N4R) (Homo sapiens, UniProt P10636); test: Th-T kinetics of heparin-induced aggregation of recombinant full-length tau; assay type: biochemical; settings: Fig. 8d
T1 construct: Recombinant full-length tau (tau^2N4R) was produced following previous established protocols; made in house
Protocol: Recombinant full-length tau (tau^2N4R) was produced following previous established protocols. Lyophilised protein aliquots were freshly dissolved in 10 mM HEPES pH 7.4 supplemented with 100 mM NaCl at a final concentration of 10 μM. After filtration, using […] PVDF filters, the protein solution was spiked with 5 μ μM of heparin (Sigma) and aggregation was monitored by adding 25 μM of Th-T in half-area black 96-well microplates (Corning, USA). Fluorescence was measured in triplicates, using a FluoStar Omega plate reader (BMG Labtech, Germany) at 37 °C, equipped with an excitation filter at 440 nm and emission filter at 490 nm. To generate seeds, endpoint amyloid fibrils were sonicated for 15 min (30 s on, 30 s off) at 10 °C, using a Bioruptor Pico sonication device (Diagenode).

ATTO633-monomeric tau = target: T2, ATTO633-monomeric tau (Homo sapiens, UniProt P10636); test: Microscale thermophoresis, monomeric rTau; assay type: binding; settings: MST, 25 nM ATTO633-monomeric tau, CAP1 titrated from 50 μM; n = 3
T2 construct: heparin-induced aggregation of recombinant full-length tau (rTau); made in house
Protocol: MST measurements were performed to calculate binding affinities. Monomeric tau was labelled using amine reactive ATTO633 (ATTO633-NHS), following the manufacturer guidelines. Labelled tau aggregates were prepared using a 1:9 analogy of labelled to unlabelled monomeric tau, following the same aggregation protocol described for the unlabelled protein. 25 nM of ATTO633-monomeric tau or ATTO633-tau seeds were mixed against the CAP1 inhibitor, which was dissolved and titrated down starting from 50 μM, in tau buffer (HEPES 10 mM, 100 mM NaCl). Measurements were recorded on a Monolith NT automated instrument (NanoTemper Technologies GmbH, Germany) with a red-laser channel at 5% LED excitation power and medium MST power at ambient conditions. Affinity constants and experimental data fitting was performed using the NanoTemper analysis software (v2.2.4) and results were depicted as differentials between the bound and unbound state after baseline subtraction (ΔFnorm) over inhibitor concentration in the logarithmic scale.

[3] = target: T3, VQIVYK (PHF6) APR from tau (Homo sapiens, UniProt P10636); test: Th-T aggregation kinetics of VQIVYK with sub-stoichiometric variant peptides (1:5) or CAP1; assay type: biochemical; settings: Fig. 8c
T3 construct: The VQIVYK (PHF6) stretch, located in the C-terminal repeat domain of tau; made in house; host or cells: chemical solid phase peptide synthesis (no expression host)
Text: To experimentally investigate these calculations, we synthesised a library of 90 peptides corresponding to 78% of all single amino acid substitutions of the VQIVYK APR. We excluded introduction of cysteines to avoid further complexity introduced by the formation of intermolecular disulphides and also avoided substitutions of the Tyr residue at position five, since it enables fast and accurate readout of peptide concentration. First, peptide:APR mixtures were monitored using Th-T aggregation kinetic assays. For this screen, we used sub-stoichiometric mixtures of the variant peptides against PHF6 (1:5 analogy). The reasoning behind this was that it enabled tracing of subtle differences in aggregation kinetics, while at the same time reduced the propensity of most variants to participate in self-assembly. […] For the rest, following curve fitting of the monitored Th-T curves (Figs. 5a, b and S4), we calculated and summarised fold changes of aggregation half-times (t1/2) in a volcano plot, with the negative logarithm of the p-values represented on the vertical axis (Fig. 5c). […] It should be noted, however, that changes in fluorescence intensity can also potentially reflect morphological differentiation of the produced fibrils that can affect Th-T binding. […]

T2 sequence (P10636 1-441 isoform P10636-8): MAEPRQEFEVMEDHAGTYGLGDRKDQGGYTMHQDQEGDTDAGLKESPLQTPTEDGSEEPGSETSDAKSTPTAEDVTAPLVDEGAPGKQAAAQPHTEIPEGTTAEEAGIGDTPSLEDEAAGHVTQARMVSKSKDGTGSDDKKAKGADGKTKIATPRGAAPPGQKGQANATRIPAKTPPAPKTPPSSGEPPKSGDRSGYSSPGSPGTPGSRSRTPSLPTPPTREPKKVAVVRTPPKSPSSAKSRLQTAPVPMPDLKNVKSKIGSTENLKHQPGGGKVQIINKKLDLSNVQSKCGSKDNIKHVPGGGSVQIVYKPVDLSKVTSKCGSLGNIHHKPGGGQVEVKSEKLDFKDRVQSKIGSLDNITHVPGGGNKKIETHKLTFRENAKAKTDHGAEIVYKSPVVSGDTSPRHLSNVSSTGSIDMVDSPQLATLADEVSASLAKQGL
T1 sequence (P10636 1-441 isoform P10636-8): as above

CC[C@H](C)[C@H](NC(=O)[C@H](CCC(N)=O)NC(=O)[C@H](Cc1c[nH]c2ccccc12)NC(=O)[C@H](CCCNC(=N)N)NC(=O)[C@H](CO)NC(=O)CNC(=O)[C@H](CCCNC(=N)N)NC(=O)[C@H](CCCCN)NC(=O)[C@H](Cc1ccc(O)cc1)NC(=O)[C@@H](NC(=O)[C@@H](NC(=O)[C@H](CCC(N)=O)NC(=O)[C@H](Cc1c[nH]c2ccccc12)NC(=O)[C@@H](N)CCCNC(=N)N)[C@@H](C)CC)C(C)C)C(=O)N[C@H](C(=O)N[C@@H](Cc1ccc(O)cc1)C(=O)N[C@@H](CCCCN)C(=O)N[C@@H](CCCNC(=N)N)C(=O)O)C(C)C [CAP1] (H-RWQIVYKRGSRWQIVYKR-OH; N-terminus and C-terminus assumed)
seed propagation of AD patient brain extracts (fraction of cells containing tau inclusions) [1]: significantly reduces | inhibition of heparin-induced aggregation of rTau [2]: successfully inhibited; also recorded: inhibits | binding to monomeric rTau (ATTO633-monomeric tau): no significant binding | inhibition of self-assembly of the PHF6 hexapeptide [3]: successfully inhibited; also recorded: inhibits

Reference: article PMC8924238, “Mapping the sequence specificity of heterotypic amyloid interactions enables the identification of aggregation modifiers” (Nature Communications, 2022)
